From patent publication US8003660B2, “Modulators of muscarinic receptors” (Vertex Pharmaceuticals Incorporated, priority 2006, dated 2011)
Read-outs that look alike come from different tables or passages of the source.

Key:
Format in all cases: cell-based
M1 muscarinic receptor = target: T1, M1 muscarinic receptor (Homo sapiens, UniProt P11229); test: Functional mobilization of intracellular calcium (FLIPR) in CHO cells expressing M1; details: for EC50: CHO cells expressing M1, FLIPR calcium; for Emax: CHO; for M1 Activity: CHO cells expressing M1, FLIPR calcium assay
T1 construct: expressed in transfected cells; host or cells: CHO (M1-CHO)
T1 sequence (P11229 1-460): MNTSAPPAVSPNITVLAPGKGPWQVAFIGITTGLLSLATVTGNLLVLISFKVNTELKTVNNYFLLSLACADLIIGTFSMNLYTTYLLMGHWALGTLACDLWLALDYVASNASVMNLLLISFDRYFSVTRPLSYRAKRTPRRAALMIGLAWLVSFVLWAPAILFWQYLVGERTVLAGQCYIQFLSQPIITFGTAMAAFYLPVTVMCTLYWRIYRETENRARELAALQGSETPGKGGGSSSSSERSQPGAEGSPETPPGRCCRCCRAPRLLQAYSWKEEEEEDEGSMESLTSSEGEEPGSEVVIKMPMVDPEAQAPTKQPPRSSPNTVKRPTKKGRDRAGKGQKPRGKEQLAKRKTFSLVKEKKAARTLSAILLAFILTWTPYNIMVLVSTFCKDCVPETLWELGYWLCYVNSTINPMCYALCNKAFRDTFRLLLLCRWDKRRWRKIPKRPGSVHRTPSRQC
Outline: (§1)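 Recombinant CHO cells loaded with Fluo-3 AM or Calcium 3 dye in pH 7.4 buffer containing 1 mM probenecid, with 0.5% final DMSO. For agonism, compound is added directly. For inhibition, it is preincubated 15 min, or co-applied, before carbachol at EC80. FLIPR fluorescence (ex 488, em 540 nm) is recorded for 60 s.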

M2 muscarinic receptor = target: T2, M2 muscarinic receptor (Homo sapiens, UniProt P08172); test: Functional mobilization of intracellular calcium (FLIPR) in CHO cells expressing M2; details: for EC50: CHO cells expressing M2, FLIPR calcium; for Emax: CHO; for M2 Activity: CHO cells expressing M2, FLIPR calcium assay
T2 construct: expressed in transfected cells; host or cells: CHO (M2-CHO)
T2 sequence (P08172 1-466): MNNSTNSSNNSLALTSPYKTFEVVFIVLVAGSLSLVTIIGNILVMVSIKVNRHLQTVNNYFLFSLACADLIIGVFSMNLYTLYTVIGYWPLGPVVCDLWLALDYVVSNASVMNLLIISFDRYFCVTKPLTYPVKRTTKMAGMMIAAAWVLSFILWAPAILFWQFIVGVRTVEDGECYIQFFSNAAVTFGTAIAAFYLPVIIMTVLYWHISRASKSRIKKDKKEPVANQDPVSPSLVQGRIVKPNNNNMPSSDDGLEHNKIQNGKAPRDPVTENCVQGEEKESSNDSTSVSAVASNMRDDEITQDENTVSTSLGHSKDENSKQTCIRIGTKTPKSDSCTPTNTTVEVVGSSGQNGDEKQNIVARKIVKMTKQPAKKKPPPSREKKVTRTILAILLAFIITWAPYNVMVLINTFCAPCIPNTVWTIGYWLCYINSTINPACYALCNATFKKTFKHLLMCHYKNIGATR
Outline: as §1

M3 muscarinic receptor = target: T3, M3 muscarinic receptor (Homo sapiens, UniProt P20309); test: Functional mobilization of intracellular calcium (FLIPR) in CHO cells expressing M3; details: for EC50: CHO cells expressing M3, FLIPR calcium; for Emax: CHO; for M3 Activity: CHO cells expressing M3, FLIPR calcium assay
T3 construct: expressed in transfected cells; host or cells: CHO (M3-CHO)
T3 sequence (P20309 whole entry): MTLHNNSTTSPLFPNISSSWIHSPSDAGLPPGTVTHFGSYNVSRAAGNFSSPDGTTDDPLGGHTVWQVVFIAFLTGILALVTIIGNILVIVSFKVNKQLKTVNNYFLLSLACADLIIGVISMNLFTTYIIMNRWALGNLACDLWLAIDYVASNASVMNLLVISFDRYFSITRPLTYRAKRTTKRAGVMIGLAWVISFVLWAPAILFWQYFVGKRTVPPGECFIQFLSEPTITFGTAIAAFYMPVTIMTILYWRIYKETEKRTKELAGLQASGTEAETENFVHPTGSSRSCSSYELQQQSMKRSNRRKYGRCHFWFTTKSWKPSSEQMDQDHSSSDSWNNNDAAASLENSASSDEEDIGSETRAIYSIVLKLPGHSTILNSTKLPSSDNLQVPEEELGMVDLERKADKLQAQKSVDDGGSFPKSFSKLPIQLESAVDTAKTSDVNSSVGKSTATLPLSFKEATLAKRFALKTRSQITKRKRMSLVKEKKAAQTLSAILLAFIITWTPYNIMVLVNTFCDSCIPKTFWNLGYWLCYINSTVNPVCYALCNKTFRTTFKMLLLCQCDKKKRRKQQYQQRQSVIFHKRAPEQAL
Outline: as §1

M4 muscarinic receptor = target: T4, M4 muscarinic receptor (Homo sapiens, UniProt P08173); test: Functional mobilization of intracellular calcium (FLIPR) in CHO cells expressing M4; details: for EC50: CHO cells expressing M4, FLIPR calcium; for Emax: CHO; for M4 Activity: CHO cells expressing M4, FLIPR calcium assay
T4 construct: expressed in transfected cells; host or cells: CHO (M4-CHO)
T4 sequence (P08173 1-479): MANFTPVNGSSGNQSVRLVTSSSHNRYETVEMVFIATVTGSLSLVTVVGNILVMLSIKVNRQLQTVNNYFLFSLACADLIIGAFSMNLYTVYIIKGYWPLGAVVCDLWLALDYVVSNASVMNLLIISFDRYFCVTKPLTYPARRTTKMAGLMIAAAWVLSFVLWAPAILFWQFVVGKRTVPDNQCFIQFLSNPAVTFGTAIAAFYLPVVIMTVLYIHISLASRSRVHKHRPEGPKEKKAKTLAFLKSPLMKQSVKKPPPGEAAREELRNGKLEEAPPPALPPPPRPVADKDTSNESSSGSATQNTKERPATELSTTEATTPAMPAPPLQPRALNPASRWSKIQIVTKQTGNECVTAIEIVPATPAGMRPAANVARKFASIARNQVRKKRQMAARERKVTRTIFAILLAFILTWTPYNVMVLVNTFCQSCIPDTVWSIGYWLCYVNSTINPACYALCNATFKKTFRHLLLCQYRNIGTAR
Outline: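 Calcium flux is read on FLIPR over 60 sec at 488/540 nm in muscarinic-receptor CHO lines. Antagonist mode adds carbachol at EC80 after 15 min compound preincubation or with simultaneous co-application. Agonist mode adds compound alone. Cells carry Fluo-3 or Calcium 3 dye in probenecid-containing pH 7.4 buffer, 0.5% DMSO final.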

[1] = 100% = maximum response obtained with the Carbachol control, read-out: M1 Efficacy
[2] = 100% = maximum response obtained with the Carbachol control, read-out: M2 Efficacy
[3] = 100% = maximum response obtained with the Carbachol control, read-out: M3 Efficacy
[4] = 100% = maximum response obtained with the Carbachol control, read-out: M4 Efficacy
[5] = 100% efficacy = maximum response obtained with the Carbachol control

Structure (SMILES) | EC50 (M1 muscarinic receptor) [µM] | Emax (M1 muscarinic receptor; [1]) [%] | EC50 (M2 muscarinic receptor) [µM] | Emax (M2 muscarinic receptor; [2]) [%] | EC50 (M3 muscarinic receptor) [µM] | Emax (M3 muscarinic receptor; [3]) [%] | EC50 (M4 muscarinic receptor) [µM] | Emax (M4 muscarinic receptor; [4]) [%] | M1 Activity (M1 muscarinic receptor) | Emax (M1 muscarinic receptor; [5]) [%] | M2 Activity (M2 muscarinic receptor) | Emax (M2 muscarinic receptor; [5]) [%] | M3 Activity (M3 muscarinic receptor) | Emax (M3 muscarinic receptor; [5]) [%] | M4 Activity (M4 muscarinic receptor) | Emax (M4 muscarinic receptor; [5]) [%]
CCC(=O)C1NCCC1C(=O)N[C@H]1CCC2(CCN(CCC(C)(C)C)CC2)c2cc(F)ccc21 (stereo partly drawn) [compound 26] | < 2 | 25 to 100 | > 5 | < 25 | > 5 | < 25 | < 2 | 25 to 100 | – | – | – | – | – | – | – | –
CCCC(=O)N[C@H]1CC2(CCN(CCC(C)(C)C)CC2)c2ccccc21 [compound 264] | – | – | – | – | – | – | – | – | + (activity was measured to be greater than 5.0 μM) | < 25 | + (activity was measured to be greater than 5.0 μM) | < 25 | + (activity was measured to be greater than 5.0 μM) | < 25 | +++ (activity was measured to be less than 2.0 μM) | 25 to 100
CC(=O)NCC(=O)N[C@@H]1CCC2(CCN(CCC(C)(C)C)CC2)c2cc(F)ccc21 [compound 200] | – | – | – | – | – | – | – | – | +++ (activity was measured to be less than 2.0 μM) | 25 to 100 | +++ (activity was measured to be less than 2.0 μM) | 25 to 100 | + (activity was measured to be greater than 5.0 μM) | < 25 | +++ (activity was measured to be less than 2.0 μM) | 25 to 100
CCN(C(=O)c1cncn1C)[C@H]1CCC2(CCN(CCC(C)(C)C)CC2)c2ccccc21 [compound 128] | 2 to 5 | 25 to 100 | > 5 | < 25 | > 5 | < 25 | < 2 | 25 to 100 | – | – | – | – | – | – | – | –
CCN(C(=O)CCC(C)=O)[C@H]1CCC2(CCN(CCC(C)(C)C)CC2)c2ccccc21 [compound 54] | < 2 | 25 to 100 | > 5 | < 25 | > 5 | < 25 | < 2 | 25 to 100 | – | – | – | – | – | – | – | –
CC(C)C[C@@H](C(=O)N[C@@H]1CCC2(CCN(CCC(C)(C)C)CC2)c2ccccc21)N1CCCC1=O [compound 182] | 2 to 5 | 25 to 100 | > 5 | < 25 | > 5 | < 25 | < 2 | 25 to 100 | – | – | – | – | – | – | – | –
CC(=O)N1CCCC1C(=O)N[C@H]1CCC2(CCN(CCC(C)(C)C)CC2)c2ccccc21 (stereo partly drawn) [compound 60] | < 2 | 25 to 100 | > 5 | < 25 | > 5 | < 25 | < 2 | 25 to 100 | – | – | – | – | – | – | – | –
CC(=O)N(C(C)C)[C@H]1CCC2(CCN(CCC(C)(C)C)CC2)c2cc(F)ccc21 [compound 86] | < 2 | 25 to 100 | > 5 | < 25 | > 5 | < 25 | < 2 | 25 to 100 | – | – | – | – | – | – | – | –
CCOCC(=O)N[C@H]1CCC2(CCN(CCC(C)(C)C)CC2)c2ccccc21 [compound 70] | < 2 | 25 to 100 | < 2 | < 25 | > 5 | < 25 | < 2 | 25 to 100 | – | – | – | – | – | – | – | –
CC(C)(C)CCN1CCC2(CC[C@@H](NC(=O)C3CCCN(C(=O)C4CC4)C3)c3ccccc32)CC1 (stereo partly drawn) [compound 55] | 2 to 5 | < 25 | < 2 | < 25 | > 5 | < 25 | < 2 | 25 to 100 | – | – | – | – | – | – | – | –
CC(C)CCN1CCC2(CCCc3ccccc32)CC1 [compound 89] | > 5 | 25 to 100 | > 5 | < 25 | > 5 | < 25 | < 2 | 25 to 100 | – | – | – | – | – | – | – | –
CC(C)(C)CCN1CCC2(CC[C@H](NC(=O)c3cccnc3)c3ccccc32)CC1 [compound 108] | < 2 | 25 to 100 | < 2 | < 25 | > 5 | < 25 | < 2 | 25 to 100 | – | – | – | – | – | – | – | –
CC(C)(C)CCN1CCC2(CC[C@H](NC(=O)C3CC(=O)N3)c3ccc(F)cc32)CC1 (stereo partly drawn) [compound 67] | < 2 | 25 to 100 | < 2 | 25 to 100 | > 5 | < 25 | < 2 | 25 to 100 | – | – | – | – | – | – | – | –
CC#CCN(C(C)=O)[C@H]1CCC2(CCN(CCC(C)(C)C)CC2)c2ccccc21 [compound 43] | < 2 | 25 to 100 | < 2 | 25 to 100 | > 5 | < 25 | < 2 | 25 to 100 | – | – | – | – | – | – | – | –
CC(C)(C)CCN1CCC2(CC[C@H](NC(=O)Cc3cccnc3)c3ccc(F)cc32)CC1 [compound 79] | < 2 | 25 to 100 | < 2 | 25 to 100 | > 5 | < 25 | < 2 | 25 to 100 | – | – | – | – | – | – | – | –
CC(C)CCN1CCC2(CC[C@H](NC(=O)C3CC3)c3ccccc32)CC1 [compound 125] | < 2 | 25 to 100 | 2 to 5 | < 25 | > 5 | < 25 | < 2 | 25 to 100 | – | – | – | – | – | – | – | –
CC(C)(C)CCN1CCC2(CC[C@H](NC(=O)CCOC(C)(C)C)c3ccccc32)CC1 [compound 88] | < 2 | 25 to 100 | < 2 | 25 to 100 | > 5 | < 25 | < 2 | 25 to 100 | – | – | – | – | – | – | – | –
CCCC(CCC)N1CCC2(CC[C@H](NC(=O)C3CC3)c3ccccc32)CC1 [compound 48] | > 5 | < 25 | > 5 | < 25 | > 5 | < 25 | > 5 | < 25 | – | – | – | – | – | – | – | –
CC(=O)N[C@H]1CCC2(CCN(CCC(C)CC(C)(C)C)CC2)c2ccccc21 (stereo partly drawn) [compound 45] | < 2 | 25 to 100 | 2 to 5 | < 25 | > 5 | 25 to 100 | > 5 | < 25 | – | – | – | – | – | – | – | –
CC(C)(C)CN1CCC2(CC1)CC(C(=O)O)c1ccccc12 (stereo not drawn) [compound 246] | – | – | – | – | – | – | – | – | + (activity was measured to be greater than 5.0 μM) | < 25 | + (activity was measured to be greater than 5.0 μM) | < 25 | + (activity was measured to be greater than 5.0 μM) | < 25 | + (activity was measured to be greater than 5.0 μM) | < 25
CC(C)(C)CCN1CCC2(CC[C@@H](NC(=O)CCN3CCCC3=O)c3ccc(F)cc32)CC1 [compound 29] | < 2 | 25 to 100 | < 2 | 25 to 100 | > 5 | < 25 | < 2 | 25 to 100 | – | – | – | – | – | – | – | –
